Values joined by “and” are separate entries in the source; they are usually repeats but may differ in a detail not shown here. Equal values may be shown once.
biological target: SARS-CoV-2 Main Protease (SARS-CoV-2) (UniProt P0DTD1)

Compound	IC50
CC(C)(C)c1ccc(N(C(=O)c2cocn2)C(C(=O)NCCc2cccc(F)c2)c2ccc[nH]c2=O)cc1 (configuration not stated)	> 99.5 µM
COc1ccc2c(NC(=O)Cc3cccc(Cl)c3)noc2c1	> 99.5 µM
O=C1CC2(CCOc3ccc(Cl)cc32)CN1c1cncc2ccccc12 (configuration not stated)	6.74 µM
O=C(Cc1cc(Cl)cc(N2CCN(c3ccccc3[N+](=O)[O-])CC2)c1)Nc1cncc2ccccc12	4.01 µM
COc1cc2cncc(NC(=O)Cc3cccc(Cl)c3)c2cc1F	> 99.5 µM
O=C(Cc1cccc(Cl)c1)NC1CS(=O)(=O)Cc2ccccc21 (configuration not stated)	> 99.5 µM
O=C(Cc1cc(Cl)cc(-c2nnn[nH]2)c1)Nc1cncc2ccccc12	21.4 µM
COc1ccccc1OCCNC(=O)c1cc(=O)[nH]c2cccc(C)c12	10.6 µM
N#Cc1ncn(CC(=O)Nc2ccc(Br)cc2Cl)n1	15.7 µM
CCc1ccc(S(C)(=O)=O)cc1C(=O)N1CCC(C2CCNC2)CC1 (configuration not stated)	> 99.5 µM
O=C(Nc1cncc2[nH]c(=O)[nH]c12)C1CCOc2ccc(Cl)cc21 (configuration not stated)	62.8 µM
CC(C)(C)c1ccc(N(C(=O)c2cn[nH]c2)C(C(=O)NCCc2cccc(F)c2)c2cccnc2)cc1 (configuration not stated)	5.83 µM
O=C(Cc1cc(Cl)cc(Nc2cc(Cl)ccc2Br)c1)Nc1cncc2ccccc12	2.1 µM
O=C(Nc1nn2cnnc2s1)c1csc(-c2ccccc2)n1	> 99.5 µM
COCc1csc(CNC(=O)c2ncc(Cl)cc2Cl)c1	> 99.5 µM
O=C(CCl)N1CCN(Cc2ccsc2)CC1	3.27 µM and 3.74 µM
O=C(Nc1cccnc1)c1cc(Cl)ccc1-c1ccccc1	39.1 µM
COC(=O)C1CC1C(=O)N1CCC(c2c[nH]c3ncccc23)CC1 (configuration not stated)	> 99.5 µM
Nc1ccc2[nH]c(C(=O)N(C(=O)c3ccco3)C(C(=O)NCCc3cccc(F)c3)c3cccnc3)cc2c1 (configuration not stated)	> 99.5 µM
O=C(Cc1cc(Cl)cc(Nc2cc(Cl)cc([N+](=O)[O-])c2O)c1)Nc1cncc2ccccc12	4.69 µM
CCC1(C(=O)Nc2cncc3ccccc23)CNC(=O)c2ccc(Cl)cc21 (configuration not stated)	1.18 µM

Compound	IC50
O=C(Cn1nnc2ccccc21)N(Cc1ccsc1)c1ccc(N2CCCCC2)cc1	6.56 µM
CN(C)S(=O)(=O)NCC1(C(=O)Nc2cncc3ccccc23)CCOc2ccc(Cl)cc21 (configuration not stated)	2.73 µM
CC(C)(C)c1ccc(N(C(=O)c2cnc[nH]2)C(C(=O)NCCc2cccc(F)c2)c2cccnc2)cc1 (configuration not stated)	0.292 µM
O=C(Nc1cncc2ccccc12)C1CN(S(=O)(=O)N2CCOCC2)Cc2ccc(Cl)cc21 (configuration not stated)	0.138 µM
CC1(C)Cc2cccc(OCCNC(=O)c3cc(=O)[nH]c4cc(F)ccc34)c2O1	> 99.5 µM
CCOC(=O)c1c(C)n(S(C)(=O)=O)c2ccc(N(C(=O)c3ccco3)S(C)(=O)=O)cc12	0.282 µM
COc1ccccc1OCCNC(=O)c1cc(=O)[nH]c2cc(F)ccc12	> 99.5 µM
CC(C)(C)c1ccc(N(C(=O)c2ccco2)C(C(=O)NCCc2cccc(F)c2)c2coc3ccccc23)cc1 (configuration not stated)	> 99.5 µM
CS(=O)(=O)NCC1(C(=O)Nc2cncc3ccccc23)CCOc2ccc(Cl)cc21 (configuration not stated)	3.87 µM
Cc1nc2scc(C)n2c1CN1CCN(Cc2ccsc2)CC1	> 99.5 µM
CC(NC(=O)CCl)c1cc(F)cc(Cl)c1 (configuration not stated)	27.9 µM
CC1CN(C(=O)c2cc(=O)[nH]c3ccccc23)CCN1c1cccc(Cl)c1 (configuration not stated)	14.7 µM
O=C(Cc1cccc(Cl)c1)Nc1cnccc1-c1ccccc1	40.9 µM
Cc1c(N)cncc1NC(=O)Cc1cccc(C#N)c1	16.1 µM
CNc1cncc(NC(=O)C2CCOc3ccc(Cl)cc32)c1C (configuration not stated)	32.3 µM
O=C(Cc1cc(Cl)cc(Nc2ncc(Br)c(C(F)(F)F)n2)c1)Nc1cncc2ccccc12	1.84 µM
COc1ccc(NC(=O)[C@@H]2CN(C(=O)CCl)CCN2S(=O)(=O)c2ccsc2)cc1 (stereo in doubt)	0.45 µM
O=C(Cc1cccc(Cl)c1)Nc1cncc2cccc(Cl)c12	0.594 µM
CNC(=O)Nc1ccc(N(C(=O)c2cocn2)C(C(=O)NCCc2cccc(F)c2)c2cccnc2)cc1 (configuration not stated)	> 99.5 µM
Cc1ccc(N(Cc2cccc(Cl)c2)C(=O)Cn2nnc3ccccc32)cc1	2.33 µM
O=C(Cc1cccc(Cl)c1)NC1C(=O)Nc2ccccc21 (configuration not stated)	> 99.5 µM
